System: Honey bee foragers (Apis mellifera scutellata)
Assay: Sucrose responsiveness (sensory sensitivity) of honey bees: flavonoids vs deltamethrin
Format: in vivo
Settings: honey bees; rutin 1 μM, kaempferol 131.7 μM or both for one day; 17.81 μM deltamethrin next day; pooled score
Experimental: Honey bee foragers (Apis mellifera scutellata) were captured from established hives at the Apiary of the Universidad del Rosario (Bogota, Colombia) between 08:00 h and 10:00 h. Bees were ice-anesthetized and harnessed in plastic tubes and maintained under laboratory conditions for the duration of the experiment (three days).
On the first day, bees were randomly allocated to one of four treatments administered as two doses (morning: 20 μL; afternoon:10 μL): i) Control (1M sucrose solution), ii) Rutin 1 μM (Sigma-Aldrich R5143), iii) Kaempferol 131.7 μM (Sigma-Aldrich K0133), iv) Rutin-Kaempferol composition (final concentration of […] rutin and 131.7 μM kaempferol). All solutions were diluted in 1M sucrose solution to the concentrations described above. The next day, bees from each group were randomly assigned to one of two treatments: […] of 1M sucrose solution or 17.81 μM deltamethrin (Dinastia Bayer). Thus, bees belonged to one of eight treatments: i) Sucrose water (Control), ii) Rutin (Rut), iii) Kaempferol (Kaemp), iv) Kaempferol+Rutin (Kaemp+Rut), v) Deltamethrin (Delta), vi) Rutin+Deltamethrin (Rut+Delta), vii) Kaempferol+Deltamethrin (Kaemp+Delta), viii) Kaempferol+Rutin+Deltamethrin ((Kaemp+Rut)+Delta). All solutions were diluted in 1M sugar water to the concentrations described above.
Sensory sensitivity was evaluated using responsiveness to sucrose, a proxy of resource exploitation by foragers. On the second day, bees of the eight treatments described above were tested five times for their response threshold (0 h, 1 h, 2 h, 3 h and 4 h). The first measure (0 h) was done prior to pesticide administration. Bees were tested with an ascending sucrose concentration of 0.1, 0.3, 1, 3, 10 and 30% (w/w). Between each concentration, the bees were presented with pure water as a control for potential sensitization or habituation (Pankiw et al., Behav Ecol Sociobiol (2000) 47:265-267). The inter-trial time between the presentation of each sucrose concentration was at least 4 minutes. For each presentation, the reflexive extension of the proboscis (tongue) of the bee, after antennal stimulation with the solution was recorded. After the last measure (4 h), bees were fed with 10 μL of 1M sucrose solution and maintained until the next day for a final test (24 hours after pesticide administration).
For each bee, a responsiveness score was determined (0-7) 0 h, 1 h, 2 h, 3 h, 4 h and 24 h, and a pooled scored (0-42). Normal distribution of the scores was tested using Shapiro-Wilk W Test for the null hypothesis that data is from a Normal distribution. […] Thus, non-parametric tests were used for comparisons across treatments and for multiple comparisons. Overall changes of responses across different concentrations were evaluated using repeated-measured MANOVA. Error associated with multiple comparisons was controlled using the Two-stage sharpened False Discovery Rate, and corrected p-values (q-values) are presented. Data were explored for outliers using a single run of Robust Fit outliers test. All analyses were conducted using JMP v.14 (SAS Institute Inc.)

C[C@@H]1O[C@@H](OC[C@H]2O[C@@H](Oc3c(-c4ccc(O)c(O)c4)oc4cc(O)cc(O)c4c3=O)[C@H](O)[C@@H](O)[C@@H]2O)[C@H](O)[C@H](O)[C@H]1O [Rutin]
sensitivity (sucrose responsiveness, total PER score) relative to Control bees: not significantly affected
